Assay results from PubChem BioAssay (NCI).
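Grown in 96-well plates, cells were treated for 48 hours with each compound at five concentrations. Insufficient inhibition: endpoint recorded as highest concentration tested. TGI is the concentration that stops growth completely.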

How the values were obtained:
Assay in all cases: DTP human tumour cell line panel, 48 h
OVCAR-4 ovarian = system: OVCAR-4 ovarian
NCI-H522 lung = system: NCI-H522 lung
SR leukemia = system: SR leukemia
SNB-78 CNS = system: SNB-78 CNS
DLD-1 colon = system: DLD-1 colon
K-562 leukemia = system: K-562 leukemia
786-0 renal = system: 786-0 renal
RPMI-8226 leukemia = system: RPMI-8226 leukemia
M14 melanoma = system: M14 melanoma
SW-620 colon = system: SW-620 colon
U251 CNS = system: U251 CNS
A498 renal = system: A498 renal
KM12 colon = system: KM12 colon
SNB-19 CNS = system: SNB-19 CNS
SK-OV-3 ovarian = system: SK-OV-3 ovarian
MOLT-4 leukemia = system: MOLT-4 leukemia
RXF 393 renal = system: RXF 393 renal
LOX IMVI melanoma = system: LOX IMVI melanoma
SF-268 CNS = system: SF-268 CNS
SF-539 CNS = system: SF-539 CNS
KM20L2 colon = system: KM20L2 colon
UACC-62 melanoma = system: UACC-62 melanoma
UO-31 renal = system: UO-31 renal
NCI-H23 lung = system: NCI-H23 lung
OVCAR-8 ovarian = system: OVCAR-8 ovarian
DMS 114 small cell lung = system: DMS 114 small cell lung
SN12C renal = system: SN12C renal
M19-MEL melanoma = system: M19-MEL melanoma
SK-MEL-28 melanoma = system: SK-MEL-28 melanoma
SF-295 CNS = system: SF-295 CNS
ACHN renal = system: ACHN renal
NCI-H460 lung = system: NCI-H460 lung
TK-10 renal = system: TK-10 renal
A549 NSCLC = system: A549 NSCLC
HOP-92 NSCLC = system: HOP-92 NSCLC
EKVX NSCLC = system: EKVX NSCLC
SNB-75 CNS = system: SNB-75 CNS
SK-MEL-5 melanoma = system: SK-MEL-5 melanoma
OVCAR-3 ovarian = system: OVCAR-3 ovarian
HCT-116 colon = system: HCT-116 colon
UACC-257 melanoma = system: UACC-257 melanoma
COLO 205 colon = system: COLO 205 colon
RXF-631 renal = system: RXF-631 renal
HOP-62 NSCLC = system: HOP-62 NSCLC
CAKI-1 renal = system: CAKI-1 renal
CCRF-CEM leukemia = system: CCRF-CEM leukemia
HL-60(TB) leukemia = system: HL-60(TB) leukemia
DMS 273 small cell lung = system: DMS 273 small cell lung
HCT-15 colon = system: HCT-15 colon
SK-MEL-2 melanoma = system: SK-MEL-2 melanoma
IGROV1 ovarian = system: IGROV1 ovarian
HT29 colon = system: HT29 colon
MALME-3M melanoma = system: MALME-3M melanoma
OVCAR-5 ovarian = system: OVCAR-5 ovarian
HCC-2998 colon = system: HCC-2998 colon
LXFL 529 NSCLC = system: LXFL 529 NSCLC
XF 498 CNS = system: XF 498 CNS
NCI-H226 lung = system: NCI-H226 lung
HOP-18 NSCLC = system: HOP-18 NSCLC

Measured: TGI

CCCC(Sc1ccccc1)P(=O)(c1ccccc1)c1ccccc1 (stereo not given)
52.2 µM: MOLT-4 leukemia
51.8 µM: RPMI-8226 leukemia
87.2 µM: SK-MEL-5 melanoma
60.1 µM: HOP-92 NSCLC
52.6 µM: HL-60(TB) leukemia
84.1 µM: EKVX NSCLC
50.7 µM: SK-OV-3 ovarian
61.4 µM: ACHN renal
66.4 µM: SR leukemia
94.7 µM: RXF-631 renal
37 µM: UACC-62 melanoma
not listed: HCT-15 colon | SK-MEL-2 melanoma | IGROV1 ovarian | HT29 colon | MALME-3M melanoma | OVCAR-5 ovarian | HCC-2998 colon | LXFL 529 NSCLC | XF 498 CNS | NCI-H226 lung | HOP-18 NSCLC
> 100 µM: all other assays above

CC1CCC(C(C)C)C(O[C@@H]2OC(=O)C[C@@H]2Sc2ccccc2)C1 (stereo not given in full)
96 µM: HOP-62 NSCLC
31.9 µM: RXF 393 renal
30.3 µM: SK-MEL-5 melanoma
63.6 µM: CAKI-1 renal
34.3 µM: HT29 colon
73.1 µM: SNB-78 CNS
98.3 µM: SNB-75 CNS
61.8 µM: SF-539 CNS
43.6 µM: HL-60(TB) leukemia
54.1 µM: KM12 colon
34.9 µM: SK-MEL-2 melanoma
55.9 µM: HCC-2998 colon
26.8 µM: CCRF-CEM leukemia
45.9 µM: 786-0 renal
42.6 µM: K-562 leukemia
91.7 µM: SK-OV-3 ovarian
28.8 µM: OVCAR-3 ovarian
46.9 µM: DMS 114 small cell lung
74.7 µM: A498 renal
54.6 µM: SF-295 CNS
41.9 µM: OVCAR-4 ovarian
36.8 µM: COLO 205 colon
58.7 µM: MALME-3M melanoma
96.3 µM: NCI-H23 lung
41.7 µM: ACHN renal
> 100 µM: DLD-1 colon | IGROV1 ovarian | SNB-19 CNS | SF-268 CNS | UACC-62 melanoma | TK-10 renal
93.6 µM: EKVX NSCLC
59.5 µM: HCT-15 colon
32 µM: MOLT-4 leukemia | SN12C renal
45.3 µM: OVCAR-8 ovarian
69.5 µM: NCI-H460 lung
69.8 µM: RXF-631 renal
26.3 µM: LOX IMVI melanoma
59.3 µM: M14 melanoma
85.9 µM: A549 NSCLC
34.7 µM: RPMI-8226 leukemia
62.1 µM: M19-MEL melanoma
36.7 µM: DMS 273 small cell lung
39.3 µM: UACC-257 melanoma
65.5 µM: OVCAR-5 ovarian
74 µM: HCT-116 colon
46.1 µM: LXFL 529 NSCLC
85.7 µM: SK-MEL-28 melanoma
39.2 µM: SW-620 colon

CC#CC1C(OC(=O)c2ccccc2)CCCC1(CI)N=[N+]=[N-] (stereo not given)
44.4 µM: MOLT-4 leukemia
78.7 µM: XF 498 CNS
55.2 µM: SR leukemia
42.2 µM: SK-MEL-5 melanoma | HL-60(TB) leukemia
99.2 µM: DMS 114 small cell lung
63.8 µM: NCI-H522 lung
86.2 µM: RPMI-8226 leukemia
not listed: SNB-19 CNS | LOX IMVI melanoma | SK-MEL-28 melanoma | RXF-631 renal
> 100 µM: all other assays above

CC(=O)Nc1ccc(/C=C/C(=O)c2sc(-c3nc(C)c(C(=O)/C=C/c4ccc(NC(C)=O)cc4)s3)nc2C)cc1
not listed: RPMI-8226 leukemia | A498 renal | SF-268 CNS | HOP-92 NSCLC | SNB-75 CNS | SK-MEL-5 melanoma | HOP-18 NSCLC
> 100 µM: all other assays above
